Source: article PMC6943441, “The Meta-Position of Phe^4 in Leu-Enkephalin Regulates Potency, Selectivity, Functional Activity, and Signaling Bias at the Delta and Mu Opioid Receptors” (Molecules, 2019)
Read-outs that look alike come from different tables or passages of the source. Square brackets hold non-standard residues; d marks the D form. Peptide text beside a SMILES is read from it. 4Pal = N[C@@H](Cc1ccncc1)C(=O)O

Experiments:
δOR [1] = target: T1, δOR (Homo sapiens, UniProt P41143); conditions: cited from earlier work
δOR [2] = target: T1, δOR; conditions: cited from earlier work; remark: listed apart in the source
δOR [3] = target: T1, δOR; conditions: at best; cited from earlier work
δOR [4] = target: T1, δOR; conditions: literature value; cited from earlier work
µOR [5] = target: T2, µOR (Homo sapiens, UniProt P35372); conditions: BRET (β-arrestin 2) and EPAC (cAMP) assays; footnote prints reference 26; cited from earlier work
HA-mouse µOR = target: T3, HA-mouse µOR (Mus musculus, UniProt P42866); assay: cAMP GloSensor inhibition assay in HEK 293 cells; type: cell-based; conditions: HEK 293, forskolin 30 µM; read-out: cAMP IC50 (nM) µOR
T3 construct: HA; expressed in transfected cells; host or cells: HEK 293
Protocol: (§2) In brief, for cAMP inhibition assays HEK 293 (Life Technologies, Grand Island, NY, USA) cells were transiently transfected in a 1:3 ratio with FLAG-mouse δOR, or HA-mouse µOR and pGloSensor22F-cAMP plasmids (Promega, Madison, WI, USA) using Xtremegene9 (Sigma). Two days post-transfection cells (20,000 cells/well, 7.5 µL) were seeded in low volume Greiner 384-well plates (#82051-458, VWR, Batavia, IL, USA) and were incubated with Glosensor reagent (Promega, 7.5 µL, 2% final concentration) for 90 min at room temperature. […] For β-arrestin recruitment assays, CHO-human µOR PathHunter β-arrestin 2 cells or CHO-human δOR PathHunter β-arrestin 2 cells (DiscoverX, Fremont, CA, USA) were plated (2,500 cells/well, 10 µL) one day prior to stimulation with 2.5 µL drug solution for 90 min at 37 °C/5% CO2, after which cells were incubated with 6 µL cell PathHunter assay buffer (DiscoverX) for 60 min at room temperature as per the manufacturer’s protocol. Luminescence for each of these assays was measured using a FlexStation3 plate reader (Molecular Devices, Sunnyvale, CA, USA).
(§3) All data are presented as means ± standard error of the mean, and analysis was performed using GraphPad Prism 8 software (GraphPad Software, La Jolla, CA). For in vitro assays, nonlinear regression was conducted to determine pIC50 (cAMP) or pEC50 (β-arrestin 2 recruitment). […] The averages of each independent run were counted as a single experiment and combined to provide a composite curve in favor of providing a ‘representative’ curve. In each experimental run, a positive control/reference compound was utilized to allow the data to be normalized and to calculate the log bias value. A minimum of three independent values were obtained for each compound in each of the cellular assays.

δOR [6] = target: T1, δOR; assay: Competition radioligand binding, [3H]DPDPE
Protocol: (§1) Next, 100 µL of membrane suspension containing 7 µg protein was added to the agonist wells and incubated for 90 min at room temperature. The reaction mixture was then filtered over a GF-B filter plate (Perkin Elmer) followed by four quick washes with ice-cold 50 mM Tris HCl. The plate was dried overnight, after which 50 µL scintillation fluid (Ultimagold uLLT) was added and radioactivity was counted on a Packard TopCount NXT scintillation counter. All working solutions were prepared in a radioligand assay buffer containing 50 mM Tris HCl, 10 mM MgCl2, and 1 mM ethylenediaminetetraacetic acid at pH 7.4.

µOR [7] = target: T2, µOR; assay: cell-based; type: cell-based; conditions: CHO PathHunter; read-out: β-Arrestin 2 EC50 (nM) µOR
Protocol: as §2, §3

µOR [8] = target: T2, µOR; assay: Competition radioligand binding, [3H]DAMGO
Protocol: as §1

FLAG-mouse δOR = target: T4, FLAG-mouse δOR (Mus musculus, UniProt P32300); assay: cAMP GloSensor inhibition assay in HEK 293 cells; type: cell-based
T4 construct: FLAG; expressed in transfected cells; host or cells: HEK 293
Protocol: as §2, §3

Rat plasma stability = assay: Rat plasma stability
Protocol: Peptides were synthesized using an Aapptec Focus XC automated peptide synthesizer coupled with a heating system using a solid phase peptide synthesis protocol using Fmoc chemistry. Preparative RP-HPLC was performed using an appropriate column and solvent system (described below) and final purity of peptides was determined by UV area % from UPLC analysis. Peptides were purified by Teledyne ISCO EZ Prep system on RediSep® C18 Prep column (30 × 250 mm, 100 Å). […] Plasma stability was also assessed using the above UPLC column and solvent gradient program using a Waters H class Plus Acquity UPLC system coupled with a QDa detector using protocol B.
Sprague Dawley rat plasma containing K2-ethylenediaminetetraacetic acid (Innovative Research, MI, USA) was transferred into 300 µL aliquots and stored at −20 °C until use. […] After adding analog, an aliquot of the mixture was removed at each indicated time point (0, 5, 10, 15, 20, 30, 60, 120, 240 min) and immediately quenched with 100 μL of a methanol solution containing 20 μM Fmoc-Leu-OH as an internal standard. […] Then, the filtrate was transferred into vials and a 5 μL sample of the resulting solution was analyzed on an UPLC system coupled with a QDa detector. […] Determination of half-life (t1/2) was carried out by using the GraphPad Prism one-phase decay method.

δOR [9] = target: T1, δOR; assay: PathHunter β-arrestin 2 recruitment assay in CHO cells
Protocol: as §2, §3

T1 sequence (P41143 whole entry): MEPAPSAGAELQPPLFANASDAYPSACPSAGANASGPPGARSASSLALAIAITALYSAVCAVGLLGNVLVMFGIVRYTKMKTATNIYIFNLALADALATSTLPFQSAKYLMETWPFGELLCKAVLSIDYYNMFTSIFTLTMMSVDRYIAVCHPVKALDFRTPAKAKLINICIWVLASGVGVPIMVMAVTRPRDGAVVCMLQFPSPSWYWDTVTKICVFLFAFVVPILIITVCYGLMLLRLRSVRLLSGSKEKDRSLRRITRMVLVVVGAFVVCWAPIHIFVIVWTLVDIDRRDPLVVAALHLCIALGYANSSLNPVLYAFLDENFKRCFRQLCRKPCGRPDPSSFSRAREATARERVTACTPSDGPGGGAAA
T2 sequence (P35372 whole entry): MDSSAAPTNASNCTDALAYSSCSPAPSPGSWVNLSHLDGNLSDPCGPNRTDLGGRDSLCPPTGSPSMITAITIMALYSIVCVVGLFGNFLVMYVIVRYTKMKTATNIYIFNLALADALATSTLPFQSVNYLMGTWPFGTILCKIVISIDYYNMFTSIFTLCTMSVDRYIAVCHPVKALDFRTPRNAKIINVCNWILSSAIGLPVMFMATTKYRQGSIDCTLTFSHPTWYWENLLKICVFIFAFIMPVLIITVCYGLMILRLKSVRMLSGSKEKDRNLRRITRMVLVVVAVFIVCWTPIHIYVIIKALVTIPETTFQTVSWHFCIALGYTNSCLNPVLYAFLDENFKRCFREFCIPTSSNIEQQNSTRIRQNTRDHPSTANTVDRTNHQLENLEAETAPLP
T4 sequence (P32300 whole entry): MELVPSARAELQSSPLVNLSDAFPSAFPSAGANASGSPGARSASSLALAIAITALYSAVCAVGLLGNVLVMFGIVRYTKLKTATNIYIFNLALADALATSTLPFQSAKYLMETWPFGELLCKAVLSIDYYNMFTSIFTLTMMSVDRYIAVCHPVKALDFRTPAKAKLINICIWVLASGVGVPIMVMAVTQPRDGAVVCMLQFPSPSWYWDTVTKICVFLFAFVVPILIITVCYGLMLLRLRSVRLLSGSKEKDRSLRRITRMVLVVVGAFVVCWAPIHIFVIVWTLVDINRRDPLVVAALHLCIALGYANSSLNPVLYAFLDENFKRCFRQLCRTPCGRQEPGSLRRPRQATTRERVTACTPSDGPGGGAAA
T3 sequence (P42866 whole entry): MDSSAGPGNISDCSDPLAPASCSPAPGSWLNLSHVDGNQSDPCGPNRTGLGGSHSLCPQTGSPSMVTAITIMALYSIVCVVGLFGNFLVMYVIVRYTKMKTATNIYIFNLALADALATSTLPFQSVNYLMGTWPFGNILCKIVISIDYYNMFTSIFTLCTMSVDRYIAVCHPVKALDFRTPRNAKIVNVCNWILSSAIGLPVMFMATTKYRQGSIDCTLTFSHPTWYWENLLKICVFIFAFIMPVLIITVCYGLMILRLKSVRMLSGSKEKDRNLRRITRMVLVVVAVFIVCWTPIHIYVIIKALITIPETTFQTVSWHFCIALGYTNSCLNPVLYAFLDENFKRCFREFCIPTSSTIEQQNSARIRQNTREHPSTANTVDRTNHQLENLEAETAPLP

rubiscolin-6
Bias Factor δOR (δOR [1]; literature value): 2.0
β-arrestin 2 efficacy (δOR [2]): 20%

aza-β-homoleucine-enkephalin
selectivity for δORs over µORs (δOR [3]): ≤ 10 fold
G Protein Selectivity (δOR vs µOR) (δOR [4]): 9.9 [23]
Bias Factor µOR (LE = Ref) (µOR [5]): 1.2
Bias Factor δOR (δOR [1]; BRET (β-arrestin 2) and EPAC (cAMP) assays, footnote prints reference 26): 5.2
Bias Factor δOR (δOR [1]; BRET (β-arrestin 2) and EPAC (cAMP) assays, footnote prints reference 26, listed as Aza-β-homoleucine): 5.2 ^¶
β-arrestin 2 efficacy (δOR [2]): 64%

CC(C)C[C@H](NC(=O)[C@H](Cc1ccncc1)NC(=O)CNC(=O)CNC(=O)[C@@H](N)Cc1ccc(O)cc1)C(=O)O [Compound 1l] (H-YGG[4Pal]L-OH; N-terminus and C-terminus assumed)
IC50 (HA-mouse µOR): 302 nM
Ki (δOR [6]): 20.4 nM
Binding Selectivity (δOR vs µOR) (δOR [6]; ratio of Ki values): 1.9
EC50 (µOR [7]): 37200 nM
Ki (µOR [8]): 38.9 nM
IC50 (FLAG-mouse δOR; HEK 293, forskolin 30 µM, read-out: cAMP IC50 (nM) δOR): 30.2 nM
G Protein Selectivity (δOR vs µOR) (FLAG-mouse δOR; cAMP potency δOR vs µOR): 10
Degradation Products (First Appearance) (Rat plasma stability; rat plasma, UPLC-mass spectrometry, time of first appearance in parentheses): (4-pyridyl)Ala-Leu (10 min) Gly-Gly-(4-pyridyl)Ala-Leu (30 min)
half-life (Rat plasma stability; rat, plasma): 1.3 h
EC50 (δOR [9]): 398 nM

Dmt-Tic-Gly-NH-Ph
selectivity for δORs over µORs (δOR [3]): ≤ 10 fold
